Test results taken from EP4813992A1, “POLYARYL DERIVATIVE AND USE THEREOF” (Hangzhou HealZen Therapeutics Co., Ltd., priority 2023, dated 2025).

Key:
[1] = Pharmacokinetic properties in SD rats after gavage; format: in vivo; settings: rat, po, 10 mg/kg, plasma
Method: The test compound is administered to SD rats by gavage at a dose of 10 mg/kg. Blood samples are collected at 0 h (before administration) and at 0.083, 0.25, 1, 2, 4, 6, 8, and 24 h after oral gavage administration. The samples are placed in anticoagulant tubes containing heparin sodium, and the mixture is thoroughly vortexed and centrifuged at 6000 rpm for 3 minutes. Plasma concentrations are determined by LC-MS/MS, and relevant pharmacokinetic parameters are calculated using Phoenix WinNonlin 8.2.0 pharmacokinetic software. Table 4 Pharmacokinetic properties of the compounds of the invention

[2] = system: HPK1/GLK; experiment: Selectivity of degrading HPK1/GLK in Jurkat cells (Western blot, 24 h); format: cell-based; settings: HPK1/GLK Fold = DC50 (HPK1) / DC50 (GLK)
Method: • 1) Cell plating: Cells are resuscitated, Jurkat cell lines in good growth condition are selected, and cells in the logarithmic growth phase are collected and counted; cell suspensions are seeded into 12 or 24-well plates (20W/well) and incubated overnight at 37°C in a 5% CO2 incubator. • 2) Preparation of compounds to be tested: The compounds to be tested are serially diluted with DMSO according to the experimental requirements and added to the corresponding cell wells, to be incubated at 37°C in a 5% CO2 incubator for 24 h. • 3) Preparation of samples: After the reaction of the compound to be tested is completed, the cells are collected in 1.5 mL EP tubes, and centrifuged at 1500 rpm for 5 min; after the supernatant is discarded, the cells are washed once with PBS, and the BCA protein is quantified and the concentration is adjusted. The adjusted samples are added to 5*loading buffer, boiled at 100°C for 10 minutes, and then the samples are loaded after the temperature is returned to room temperature. • 4) Detection of samples: Electrophoresis is performed using 10% SDS-PAGE with a sample loading volume of 10 µL/well. After the membrane transfer is completed, the samples are blocked with 5% skim milk at room temperature for 1 h. After the residual blocking solution is washed away with TBST, HPK1 and GLK antibodies are added for incubation overnight at 4°C. Washing is performed 3 more times with TBST on a shaker, 5 minutes each time. After washing is completed, the secondary antibody is added for incubation at room temperature in a shaker for 1 hour; then, washing is performed 3 more times with TBST on a shaker, 5 minutes each time; finally, the membrane is soaked in TBST and then subjected to chemiluminescence development. • 5) Data Processing: After the PVDF membrane is developed, the data are exported and plotted using Imang J, and the gray values of the protein bands are analyzed using Image J software; the DC50 curve is fitted using Graphpad Prism 9 software to obtain the results of the selectivity of the compound in degrading HPK1/GLK: HPK1/GLK Fold = DC50 (HPK1) / DC50 (GLK) . Table 3 Selectivity of the compounds of the invention in degrading HPK1/GLK

[3] = molecular target: T1, HPK1 kinase (Homo sapiens, UniProt Q92918); experiment: Lantha screen assay, inhibitory effect on HPK1 kinase; format: biochemical; settings: initial compound concentration 1 µM
Procedure, shortened: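 Kinase pre-incubated with compound for 10 min at room temperature in 50 mM HEPES pH 7.5, 10 mM MgCl2, 4 mM DTT, 0.01% Tween-20, 0.01% BSA. Fluorescein-PKC substrate plus ATP then added for 90 min, stopped with antibody/EDTA for 60 min. Top concentration 1 µM; IC50 from four-parameter fit of inhibition vs log concentration.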

[4] = molecular target: T1, HPK1 kinase; experiment: Activity of degrading HPK1 in Jurkat cells (Western blot, 24 h); format: cell-based; parameters: endogenous in cells; host or cells: Jurkat; settings: HPK1 protein degradation
Method: The adjusted samples are added to 5*loading buffer, boiled at 100°C for 10 minutes, and then the samples are loaded after the temperature is returned to room temperature. • 4) Detection of samples: Electrophoresis is performed using 10% SDS-PAGE with a sample loading volume of 8 µL/well. After the membrane transfer is completed, the samples are blocked with 5% BSA at room temperature for 1 h. After the residual blocking solution is washed away with TBST, HPK1 and GAPDH antibodies are added for incubation overnight at 4°C. Washing is performed 3 more times with TBST on a shaker, 10 minutes each time. After washing is completed, the secondary antibody is added for incubation at room temperature for 1 hour; then, washing is performed 3 more times with TBST on a shaker, 10 minutes each time; finally, ECL exposure solution is used to develop and image the bands to detect changes in HPK1 protein.

T1 sequence (Q92918 whole entry): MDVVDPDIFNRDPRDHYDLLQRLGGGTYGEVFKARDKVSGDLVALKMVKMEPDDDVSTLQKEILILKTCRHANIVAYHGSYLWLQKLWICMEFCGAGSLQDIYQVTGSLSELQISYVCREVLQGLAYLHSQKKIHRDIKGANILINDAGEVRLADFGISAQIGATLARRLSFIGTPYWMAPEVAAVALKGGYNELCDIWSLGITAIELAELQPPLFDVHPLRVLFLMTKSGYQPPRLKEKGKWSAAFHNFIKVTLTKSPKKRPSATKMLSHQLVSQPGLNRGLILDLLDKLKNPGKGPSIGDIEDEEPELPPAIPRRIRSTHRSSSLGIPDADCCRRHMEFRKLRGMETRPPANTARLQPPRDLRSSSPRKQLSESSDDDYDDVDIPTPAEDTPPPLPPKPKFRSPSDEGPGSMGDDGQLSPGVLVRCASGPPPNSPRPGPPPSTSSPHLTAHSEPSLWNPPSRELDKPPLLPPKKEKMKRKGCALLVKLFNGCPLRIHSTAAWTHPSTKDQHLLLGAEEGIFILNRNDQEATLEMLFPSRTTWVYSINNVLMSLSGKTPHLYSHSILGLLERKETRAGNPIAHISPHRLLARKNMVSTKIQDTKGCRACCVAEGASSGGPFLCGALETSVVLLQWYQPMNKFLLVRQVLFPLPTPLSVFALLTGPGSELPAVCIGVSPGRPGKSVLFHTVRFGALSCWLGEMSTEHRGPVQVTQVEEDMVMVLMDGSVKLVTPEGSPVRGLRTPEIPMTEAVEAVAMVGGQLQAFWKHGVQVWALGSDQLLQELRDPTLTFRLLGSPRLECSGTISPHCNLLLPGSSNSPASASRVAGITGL

Structure (SMILES) | AUC [1] [ng·h/mL] | HPK1/GLK Fold [2] | IC50 [3] [nM] | DC50 ([4]; class symbols) [nM] | DC50 ([4]; numeric values) [nM]
O=C1CCN(c2cc(C(=O)N3CCC(CC4CCN(c5ccc(-c6cnc7[nH]cc(-c8cnn(CC(F)(F)F)c8)c7n6)cn5)CC4)CC3)ccc2Cl)C(=O)N1 [Compound a, reference compound] | 3850 | – | – | – | –
Cc1cc(-c2cnc3[nH]cc(-c4ccc(C(=O)N(C)C)cc4)c3n2)cc(C)c1C1=CCN(C2CN(c3ccc(C(=O)NC4CCC(=O)NC4=O)cn3)C2)CC1 (centres unmarked) [compound 011] | 8990 | ++++ (1000≤Fold) | < 10 | – | –
Cc1cc(-c2cnc3[nH]cc(-c4ccc(C(=O)N(C)C)cc4)c3n2)cc(C)c1C1=CCN(C2CN(c3ccc(C(=O)NC4CCC(=O)NC4=O)nc3)C2)CC1 (centres unmarked) [compound 012] | – | ++++ (1000≤Fold) | < 10 | – | –
Cc1cc(-c2cnc3[nH]cc(-c4ccc(C(=O)N(C)C)cc4)c3n2)cc(C)c1C1=CCN(CC2CCN(c3ccc(NC4CCC(=O)NC4=O)cc3F)CC2)CC1 (centres unmarked) [compound 018] | – | ++++ (1000≤Fold) | < 10 | < 10 | –
Cc1cc(N2CC(C(C)N3CC=C(c4c(C)cc(-c5cnc6[nH]cc(-c7ccc(C(=O)N(C)C)cc7)c6n5)cc4C)CC3)C2)ccc1N1CCC(=O)NC1=O (centres unmarked) [compound 042] | – | ++++ (1000≤Fold) | < 10 | – | –
Cc1cc(-c2cnc3[nH]cc(-c4cncc5c4ncn5C)c3n2)cc(C)c1C1=CCN(CC2CN(c3cc(F)c(C4CCC(=O)NC4=O)c(F)c3)C2)CC1 (centres unmarked) [compound 057] | 11300 | ++++ (1000≤Fold) | < 10 | – | –
COc1ccc(C(=O)N2CC(N3CC=C(c4c(C)cc(-c5cnc6[nH]cc(-c7ccc(C(=O)N(C)C)cc7)c6n5)cc4C)CC3)C2)cc1N1CCC(=O)NC1=O [compound 061] | – | ++++ (1000≤Fold) | < 10 | – | –
Cc1cc(-c2cnc3[nH]cc(-c4ccc(C(=O)N(C)C)cc4)c3n2)cc(C)c1C1=CCN(CC2CN(c3cc4c(cc3F)c(N3CCC(=O)NC3=O)nn4C)C2)CC1 [compound 062] | 9920 | ++++ (1000≤Fold) | < 10 | – | –
Cc1cc(-c2cnc3[nH]cc(-c4ccc(C(=O)N(C)C)cc4)c3n2)cc(C)c1C1=CCN(CC2CN(c3cc(F)c(N4CCC(=O)NC4=O)c(F)c3)C2)CC1 [compound 079] | – | ++++ (1000≤Fold) | < 10 | – | –
Cc1cc(-c2cnc3[nH]cc(-c4ccc(C(=O)N(C)C)cc4)c3n2)cc(C)c1C1=CCN(CC2CN(c3ccc(C(=O)NC4CCC(=O)NC4=O)cc3)C2)CC1 (centres unmarked) [compound 081] | – | ++++ (1000≤Fold) | < 10 | < 10 | –
Cc1cc(-c2cnc3[nH]cc(-c4ccc(C(=O)N(C)C)cc4)c3n2)cc(C)c1C1=CCN(CC2CN(c3ccc(OC4CCC(=O)NC4=O)cn3)C2)CC1 (centres unmarked) [compound 086] | 8500 | ++++ (1000≤Fold) | < 10 | – | –
Cc1cc(-c2cnc3[nH]cc(-c4ccc(C(=O)N(C)C)cc4)c3n2)cc(C)c1C1=CCN(CC2CN(c3ccc(C(=O)NC4CCC(=O)NC4=O)cn3)C2)CC1 (centres unmarked) [compound 089] | – | ++++ (1000≤Fold) | < 10 | – | –
Cc1cc(N2CC(CN3CC=C(c4c(C)cc(-c5cnc6[nH]cc(-c7ccc8c(c7)CCN(C)C8=O)c6c5)cc4C)CC3)C2)ccc1N1CCC(=O)NC1=O [compound 099] | – | ++++ (1000≤Fold) | < 10 | < 10 | –
Cc1cc(-c2cnc3[nH]cc(-c4ccc(C(=O)N5CC6(COC6)C5)cc4)c3n2)cc(C)c1C1=CCN(CC2CN(c3ccc(N4CCC(=O)NC4=O)c(F)c3)C2)CC1 [compound 105] | – | ++++ (1000≤Fold) | < 10 | < 10 | –
Cc1cc(-c2cnc3[nH]cc(-c4ccc(C(=O)N(C)CC(C)O)cc4)c3n2)cc(C)c1C1=CCN(CC2CN(c3ccc(N4CCC(=O)NC4=O)c(F)c3)C2)CC1 (centres unmarked) [compound 107] | – | ++++ (1000≤Fold) | < 10 | – | –
COCCCN(C)C(=O)c1ccc(-c2c[nH]c3ncc(-c4cc(C)c(C5=CCN(CC6CN(c7ccc(N8CCC(=O)NC8=O)c(C)c7)C6)CC5)c(C)c4)cc23)cc1 [compound 109] | – | ++++ (1000≤Fold) | < 10 | < 10 | –
Cc1cc(N2CC(CN3CC=C(c4c(C)cc(-c5cnc6[nH]cc(-c7cnn(C8CCN(CC(F)F)CC8)c7)c6c5)cc4C)CC3)C2)ccc1N1CCC(=O)NC1=O [compound 110] | 4070 | – | < 10 | – | 12.4
Cc1cc(N2CCC(CN3CC=C(c4c(C)cc(-c5cnc6[nH]cc(-c7ccc(C(=O)N(C)C)cc7)c6n5)cc4C)CC3)CC2)ccc1N1CCC(=O)NC1=O [compound 113] | – | ++++ (1000≤Fold) | < 10 | < 10 | –
Cc1cc(N2CC(CN3CC=C(c4ccc(-c5cnc6[nH]cc(-c7ccc(C(=O)N(C)C)cc7)c6c5)cc4C(C)C)CC3)C2)ccc1N1CCC(=O)NC1=O [compound 129] | – | ++++ (1000≤Fold) | < 10 | < 10 | –
Cc1cc(-c2cnc3[nH]cc(-c4ccc(C(=O)N(C)C)cc4)c3c2)cc(C)c1C1=CCN(CC2CN(C(=O)c3ccc(Cl)c(N4CCC(=O)NC4=O)c3)C2)CC1 [compound 130] | – | ++++ (1000≤Fold) | < 10 | – | –
Cc1cc(-c2c[nH]c3ncc(-c4cc(C)c(C5=CCN(CC6CN(c7ccc(N8CCC(=O)NC8=O)c(F)c7)C6)CC5)c(C)c4)nc23)ccc1C(=O)N(C)C [compound 146] | – | ++++ (1000≤Fold) | < 10 | – | –
Cc1cc(-c2cnc3[nH]cc(-n4cc(C5CC5)cn4)c3n2)cc(C)c1C1=CCN(CC2CN(c3ccc(N4CCC(=O)NC4=O)c(F)c3)C2)CC1 [compound 160] | – | ++++ (1000≤Fold) | < 10 | < 10 | –
Cc1cc(-c2cnc3[nH]cc(-n4cc(CC(F)(F)F)cn4)c3n2)cc(C)c1C1=CCN(CC2CN(c3ccc(N4CCC(=O)NC4=O)c(F)c3)C2)CC1 [compound 162] | – | ++++ (1000≤Fold) | < 10 | < 10 | –
Cc1cc(-c2cnc3[nH]cc(-n4cc(F)cn4)c3n2)cc(C)c1C1=CCN(CC2CN(c3ccc(N4CCC(=O)NC4=O)c(F)c3)C2)CC1 [compound 163] | – | ++++ (1000≤Fold) | < 10 | < 10 | –
Cc1cc(-c2cnc3[nH]cc(-c4cnc(C(F)(F)F)s4)c3n2)cc(C)c1C1=CCN(CC2CN(c3ccc(N4CCC(=O)NC4=O)c(F)c3)C2)CC1 [compound 165] | – | ++++ (1000≤Fold) | < 10 | < 10 | –
Cc1cc(-c2cnc3[nH]cc(-c4cnc5cc(F)ccn45)c3n2)cc(C)c1C1=CCN(CC2CN(c3ccc(N4CCC(=O)NC4=O)c(F)c3)C2)CC1 [compound 167] | – | ++++ (1000≤Fold) | < 10 | < 10 | –
Cc1ccn2c(-c3c[nH]c4ncc(-c5cc(C)c(C6=CCN(CC7CN(c8ccc(N9CCC(=O)NC9=O)c(F)c8)C7)CC6)c(C)c5)nc34)cnc2c1 [compound 168] | – | – | < 10 | < 10 | –
Cc1cc(-c2cnc3[nH]cc(-c4cnco4)c3n2)cc(C)c1C1=CCN(CC2CN(c3ccc(N4CCC(=O)NC4=O)c(F)c3)C2)CC1 [compound 169] | – | – | < 10 | < 10 | –
Cc1nsc(-c2c[nH]c3ncc(-c4cc(C)c(C5=CCN(CC6CN(c7ccc(N8CCC(=O)NC8=O)c(F)c7)C6)CC5)c(C)c4)nc23)n1 [compound 171] | – | – | < 10 | < 10 | –
